From paper PMC7339578, “Multiple circulating alkaloids and saponins from intravenous Kang-Ai injection inhibit human cytochrome P450 and UDP-glucuronosyltransferase isozymes: potential drug–drug interactions” (Chinese Medicine, 2020)
“And” between values parts separate entries of the source, which are not always exact repeats. Equal entries are not always repeated. Where two headings read alike, the source gives them in different places.

Key:
Format in all cases: in vivo, Sprague–Dawley rats
[1] = Urinary (renal) excretion in rats after a 30-min infusion of Kang-Ai injection
Protocol: (§1) For urine sampling, the rats were housed singly in metabolic cages. And then, the urine samples were collected at 0–4, 4–8 and 8–12 h after starting infusion and were weighed. Likewise, bile samples were also collected at 0–3, 3–6, 6–9 and 9–12 h after starting infusion and were weighed. The urine and bile collection tubes were all frozen at − 80 °C.
(§2) Pharmacokinetic parameters were estimated by non-compartmental analysis using WinNonlin 6.3 software (Pharsight, NC, US). Data are presented as the mean ± SD (n = 3). The area under the concentration–time curve up to the last measured point in time (AUC0-t) was calculated using the trapezoidal rule. The total plasma clearance (CLtot, p) was calculated by dividing the compound dose by the AUC0-∞, and the distribution volume at steady state (VSS) was estimated by multiplying the CLtot, p by the mean residence time (MRT). The renal excretory clearance (CLR) and hepatobiliary (CLB) was determined by dividing the cumulative amount excreted into urine (Cum.Ae-U) and bile (Cum.Ae-B) by the plasma AUC0-∞, respectively. The fractions of dose excreted into urine (fe-U) and the fractions of dose excreted into bile (fe-B) were established using the relationship Cum.Ae-U/Dose and Cum.Ae-B/Dose, respectively. Mean differences between treatment and control groups were analyzed by two-tailed unpaired Student’s t test by Graphpad Prism V5 software (SanDiego, CA). The level of significance was set at p < 0.05 (∗), p < 0.01 (∗∗) or p < 0.001 (∗∗∗).

[2] = Biliary (hepatobiliary) excretion in rats after a 30-min infusion of Kang-Ai injection
Protocol: as §1, §2

[3] = Plasma pharmacokinetics in rats after a 30-min intravenous infusion of Kang-Ai injection
Protocol: Specific pathogen free (SPF) grade male Sprague–Dawley rats (250 ± 20) g were provided by the Experimental Animal Center of Zhengzhou University (Zhengzhou, China). These rats were kept in a designated animal room at constant temperature (22 ± 2) °C and humidity (50 ± 20) % with 12 h of light/dark per day and free access to water and food. All protocols of animal experiments were approved in accordance with the Regulations of Experimental Animal Administration issued by the Ethics Review Committee for Animal Experimentation of Jinan University (Ethical Review NO. 20190301010). Prior to the experiments, the rats were fasted for 12 h but with free access to water. After study use, the rats were euthanized with CO2 gas.
The rats in this study all received a single 30-min intravenous infusion of Kang-Ai injection via the tail veins using TYD01-02 infusion pumps (Lead Fluid, Baoding, China). The dose was derived from the label daily dose of Kang-Ai injection (60 mL/person, once daily) according to dose normalization by body surface area. For plasma pharmacokinetic studies, the rats were randomly received a single intravenous 30 min-bolus dose at 6 mL/kg. Blood samples (100 μL) were collected from the rats’ external jugular veins into heparinized polypropylene tubes at 5, 15, 30, 45 min, and 1, 1.5, 2, 3, 4, 6, 8, 12 h. After gently shaking for 10 s, the blood samples were centrifuged at 13000 g for 10 min to yield plasma samples, which were kept frozen at − 80 °C until analysis.
as §2

[4] = rat urine 0–12 h, Kang-Ai injection 6 mL/kg iv
[5] = rat bile 0–12 h, Kang-Ai injection 6 mL/kg iv
[6] = male, Sprague-Dawley, rat, in vivo, iv

## 9α-hydroxysophoramine [Compound A4]
[1]; rat, in vivo, iv
  fe-U,0–12h (fraction of dose excreted into urine): 42.80 ± 14.69%
[2]; rat, in vivo, iv
  fe-B,0–12h (fraction of dose excreted into bile): 11.14 ± 1.05%

## O=c1cccc2n1C[C@H]1C[C@@H]2CN2CC[C@H](O)C[C@H]12 [Compound A5, Baptifoline]
[3]; rat plasma, 30-min iv infusion of Kang-Ai injection 6 mL/kg
  t1/2: 2.15 ± 0.50 h
[3]; rat plasma, 30-min iv infusion of Kang-Ai injection 6 mL/kg, read-out: Cmax
  Cmax: 264 ± 47.2 nM
[1]; [4]
  fe-U,0–12h (fraction of dose excreted into urine): 37.56 ± 15.13%
[2]; [5]
  fe-B,0–12h (fraction of dose excreted into bile): 10.30 ± 1.11%

## O=C1C=CC[C@@H]2[C@H]3C[C@H](O)CN4CCC[C@@H](CN12)[C@@H]34 [Compound A6, 9α-hydroxysophocarpine]
[3]; rat, in vivo, iv
  CLtot, p: 47.70 ± 10.72 mL/h
  Cmax: 344 ± 40.7 nM
  VSS: 93.63 ± 24.86 mL
  t1/2: 2.16 ± 1.28 h
[1]; rat, in vivo, iv
  CLR (renal excretory clearance): 6.23 ± 2.97 mL/h
  fe-U,0–12h (fraction of dose excreted into urine): 12.92 ± 4.98%
[2]; rat, in vivo, iv
  CLB (hepatobiliary clearance): 5.86 ± 1.10 mL/h
  fe-B,0–12h (fraction of dose excreted into bile): 12.50 ± 1.32%

## O=C1CCCC2=C3CCC[N+]4([O-])CCC[C@@H](CN12)[C@@H]34 (stereo partly drawn) [Compound A7, Leontalbinine N-oxide]
[3]; rat, in vivo, iv
  CLtot, p: 20.03 ± 4.84 mL/h
  Cmax: 202 ± 19.1 nM
  MRT: 7.94 h
  VSS: 150.70 ± 19.02 mL
  t1/2: 5.73 ± 1.74 h
[1]; rat, in vivo, iv
  CLR (renal excretory clearance): 12.32 ± 4.14 mL/h
  fe-U,0–12h (fraction of dose excreted into urine): 61.05 ± 10.61%
[2]; rat, in vivo, iv
  CLB (hepatobiliary clearance): 1.42 ± 0.17 mL/h
  fe-B,0–12h (fraction of dose excreted into bile): 7.30 ± 1.41%

## CC(C)(O[C@@H]1O[C@H](CO)[C@@H](O)[C@H](O)[C@H]1O)[C@@H]1CC[C@](C)([C@H]2[C@@H](O)C[C@@]3(C)[C@@H]4C[C@H](O)[C@H]5C(C)(C)[C@@H](O[C@@H]6OC[C@@H](O)[C@H](O)[C@H]6O)CC[C@@]56C[C@@]46CC[C@]23C)O1 [Compound B1, Isoastragaloside IV]
[2]; rat, in vivo, iv
  fe-B,0–12h (fraction of dose excreted into bile): 30.40 ± 3.79%

## CC(C)(O)[C@@H]1CC[C@](C)([C@H]2[C@@H](O)C[C@@]3(C)[C@@H]4C[C@H](O[C@@H]5O[C@H](CO)[C@@H](O)[C@H](O)[C@H]5O)[C@H]5C(C)(C)[C@@H](O[C@@H]6OC[C@@H](O)[C@H](O)[C@H]6O[C@@H]6O[C@H](CO)[C@@H](O)[C@H](O)[C@H]6O)CC[C@@]56C[C@@]46CC[C@]23C)O1 [Compound B4, Astragaloside VI]
[1]; [4]
  fe-U,0–12h (fraction of dose excreted into urine): 63.43 ± 11.75%

## CC(C)(O[C@@H]1O[C@H](CO)[C@@H](O)[C@H](O)[C@H]1O)[C@@H]1CC[C@](C)([C@H]2[C@@H](O)C[C@@]3(C)[C@@H]4C[C@H](O)[C@H]5C(C)(C)[C@@H](O[C@@H]6OC[C@@H](O)[C@H](O)[C@H]6O[C@@H]6O[C@H](CO)[C@@H](O)[C@H](O)[C@H]6O)CC[C@@]56C[C@@]46CC[C@]23C)O1 [Compound B5, Astragaloside V]
[1]; rat, in vivo, iv
  fe-U,0–12h (fraction of dose excreted into urine): 51.36 ± 7.44%

## CC(C)=CCC[C@](C)(O[C@@H]1O[C@H](CO)[C@@H](O)[C@H](O)[C@H]1O)[C@H]1CC[C@]2(C)[C@@H]1[C@H](O)C[C@@H]1[C@@]3(C)CC[C@H](O)C(C)(C)[C@@H]3[C@@H](O)C[C@]12C [Compound C2, Ginsenoside F1]
[1]; [4]
  fe-U,0–12h (fraction of dose excreted into urine): 23.37 ± 7.94%
[2]; [5]
  fe-B,0–12h (fraction of dose excreted into bile): 24.20 ± 4.93%

## CC(C)=CCC[C@](C)(O[C@@H]1O[C@H](CO[C@@H]2OC[C@H](O)[C@H](O)[C@H]2O)[C@@H](O)[C@H](O)[C@H]1O)[C@H]1CC[C@]2(C)[C@@H]1[C@H](O)C[C@@H]1[C@@]3(C)CC[C@H](O)C(C)(C)[C@@H]3[C@@H](O)C[C@]12C [Compound C4, Ginsenoside F3]
[1]; [6]
  fe-U,0–12h (fraction of dose excreted into urine): 24.46 ± 3.37%
[2]; [6]
  fe-B,0–12h (fraction of dose excreted into bile): 67.93 ± 8.80%

## CC(C)=CCC[C@](C)(O[C@@H]1O[C@H](CO)[C@@H](O)[C@H](O)[C@H]1O)[C@H]1CC[C@]2(C)[C@@H]1[C@H](O)C[C@@H]1[C@@]3(C)CC[C@H](O)C(C)(C)[C@@H]3[C@@H](O[C@@H]3O[C@H](CO)[C@@H](O)[C@H](O)[C@H]3O[C@@H]3OC[C@@H](O)[C@H](O)[C@H]3O)C[C@]12C [Compound C10, Ginsenoside R1]
[1]; [4]
  fe-U,0–12h (fraction of dose excreted into urine): 40.28 ± 5.48%

## CC(C)=CCC[C@](C)(O[C@@H]1O[C@H](CO[C@@H]2O[C@@H](CO)[C@H](O)[C@H]2O)[C@@H](O)[C@H](O)[C@H]1O)[C@H]1CC[C@]2(C)[C@@H]1[C@H](O)C[C@@H]1[C@@]3(C)CC[C@H](O)C(C)(C)[C@@H]3[C@@H](O[C@@H]3O[C@H](CO)[C@@H](O)[C@H](O)[C@H]3O)C[C@]12C [Compound C11, Ginsenoside Re4]
[1]; rat, in vivo, iv
  fe-U,0–12h (fraction of dose excreted into urine): 48.30 ± 10.27%

## CC(C)=CCC[C@](C)(O[C@@H]1O[C@H](CO[C@@H]2O[C@H](CO)[C@@H](O)[C@H](O)[C@H]2O)[C@@H](O)[C@H](O)[C@H]1O)[C@H]1CC[C@]2(C)[C@@H]1[C@H](O)C[C@@H]1[C@@]3(C)CC[C@H](O)C(C)(C)[C@@H]3[C@@H](O[C@@H]3O[C@H](CO)[C@@H](O)[C@H](O)[C@H]3O)C[C@]12C [Compound C12, Notoginsenoside R3]
[1]; rat, in vivo, iv
  fe-U,0–12h (fraction of dose excreted into urine): 36.16 ± 7.04%

## CC(C)=CCC[C@](C)(O[C@@H]1O[C@H](CO)[C@@H](O)[C@H](O)[C@H]1O)[C@H]1CC[C@]2(C)[C@@H]1[C@H](O)C[C@@H]1[C@@]3(C)CC[C@H](O)C(C)(C)[C@@H]3[C@@H](O[C@@H]3O[C@H](CO)[C@@H](O)[C@H](O)[C@H]3O[C@@H]3O[C@H](CO)[C@@H](O)[C@H](O)[C@H]3O)C[C@]12C [Compound C13, 20-Gluco-Ginsenoside Rf]
[1]; rat, in vivo, iv
  fe-U,0–12h (fraction of dose excreted into urine): 38.72 ± 6.57%

## CC(C)=CCC[C@](C)(O[C@@H]1O[C@H](CO)[C@@H](O)[C@H](O)[C@H]1O)[C@H]1CC[C@]2(C)[C@@H]1[C@H](O)C[C@@H]1[C@@]3(C)CC[C@H](O[C@@H]4O[C@H](CO)[C@@H](O)[C@H](O)[C@H]4O)C(C)(C)[C@@H]3CC[C@]12C [Compound D1, Ginsenoside F2]
[2]; [5]
  fe-B,0–12h (fraction of dose excreted into bile): 7.46% and 7.46 ± 2.11%

## C=C(CCC=C(C)C)[C@H]1CC[C@]2(C)[C@@H]1[C@H](O)C[C@@H]1[C@@]3(C)CC[C@H](O)C(C)(C)[C@@H]3[C@@H](O[C@@H]3O[C@H](CO)[C@@H](O)[C@H](O)[C@H]3O)C[C@]12C [Compound E1, Ginsenoside Rk3]
[2]; rat, in vivo, iv
  fe-B,0–12h (fraction of dose excreted into bile): 27.80 ± 7.01%

## CC(C)=CC/C=C(\C)[C@H]1CC[C@]2(C)[C@@H]1[C@H](O)C[C@@H]1[C@@]3(C)CC[C@H](O)C(C)(C)[C@@H]3[C@@H](O[C@@H]3O[C@H](CO)[C@@H](O)[C@H](O)[C@H]3O)C[C@]12C [Compound E2, Ginsenoside Rh4]
[2]; [5]
  fe-B,0–12h (fraction of dose excreted into bile): 46.95 ± 6.46%

## C=C(CCC=C(C)C)[C@H]1CC[C@]2(C)[C@@H]1[C@H](O)C[C@@H]1[C@@]3(C)CC[C@H](O)C(C)(C)[C@@H]3[C@@H](O[C@@H]3O[C@H](CO)[C@@H](O)[C@H](O)[C@H]3O[C@@H]3O[C@@H](C)[C@H](O)[C@@H](O)[C@H]3O)C[C@]12C [Compound E3, Ginsenoside Rg6]
[2]; rat, in vivo, iv
  fe-B,0–12h (fraction of dose excreted into bile): 31.31 ± 6.25%

## CC(C)=CC/C=C(/C)[C@H]1CC[C@]2(C)[C@@H]1[C@H](O)C[C@@H]1[C@@]3(C)CC[C@H](O)C(C)(C)[C@@H]3[C@@H](O[C@@H]3O[C@H](CO)[C@@H](O)[C@H](O)[C@H]3O[C@@H]3O[C@@H](C)[C@H](O)[C@@H](O)[C@H]3O)C[C@]12C [Compound E4, Ginsenoside F4]
[2]; rat, in vivo, iv
  fe-B,0–12h (fraction of dose excreted into bile): 29.36 ± 3.14%
